This is an account of results in patent US20130267532A1, “CYCLIC AMIDE COMPOUNDS AND THEIR USE IN THE TREATMENT OF DISEASE” (priority 2010, published 2013).

pIC50: −log10 of the molar value. Bounds are passed on as bounds.

In one data set the target is T1, hERG potassium channel (Homo sapiens, UniProt Q12809).
T1 construct: expressed in transfected cells; host or cells: Chinese hamster ovary K1 (CHO) cells stably expressing hERG
In words: hERG analysis Method 1 (QPatch HT automated patch clamp, CHO cells). The data set is classed as cell-based. Particulars: hERG-expressing CHO cells, tail current, room temperature (22±2° C.), 4 cumulative concentrations. The procedure:
hERG (Human Ether-a-go-go Related Gene) Analysis—Method 1
The hERG potassium current is measured in a hERG-stably-expressing Chinese hamster ovary K1 (CHO) cells. The experiments were performed using an automated planar patch-clamp system QPatch HT (Sophion Bioscience A/S). The application of pressure for forming gigaseals and whole-cell patch clamp configuration were established using the QPatch assay software. Patch-clamp experiments were performed in voltage-clamp mode and whole-cell currents were recorded from individual cells. The following stimulation protocol was applied to investigate the effects of compounds on hERG potassium channel.: The membrane potential was held at −80 mV and repetitively (every 15 s) depolarized to +20 mV for 5 s after the pulse to −50 mV for 20 ms served to define the baseline, followed by repolarizing step to −50 mV for 5 s to evaluate of the tail current amplitude. Experiments were conducted at room temperature (22±2° C.).
Effects of compounds were determined from cumulative applications of increasing 4 concentrations and calculated as percent of blocked current. The data points were fitted with Hill equation to calculate half-maximal inhibition concentrations.
The test solution includes:
Extracellular solution (mM): 2 mM of CaCl2, 1 mM of MgCl2, 10 mM of HEPES, 4 mM of KCl, 145 mM of NaCl, and 10 mM of glucose; and
Intracellular solution (mM): 5.4 mM of CaCl2, 1.8 mM of MgCl2, 10 mM of HEPES, 31 mM of KOH, 10 mM of EGTA, 120 mM of KCl, and 4 mM of ATP.
For orientation: The hERG channel carries a current that helps repolarise heart muscle cells.

The nature of a further data set: PAMPA analysis. Particulars: pH 7.4, GIT Lipid-0, incubation for 4 h, read-out: Pe pH 7.4. The data set is classed as in vitro ADME. The procedure:
Donor: System Solution Concentrate (pION inc.) (25 mL) and DMSO (50 mL) (f.c. 5%) was diluted to 1 L with milliQ water, adjusted to pH5.0 or 7.4 with NaOH. Compound solution (5 μL, 10 mM solution in DMSO) was added to 1 mL of system solution prepared as above, and filtered.
Acceptor: Acceptor Sink Buffer(pION inc.)
Compound solution (200 μL) was added to Donor plate. GIT Lipid-0 (pION inc.) […] was added to Acceptor plate. Acceptor Sink Buffer (200 μL) was added to Acceptor plate. Donor and Acceptor plates were superposed. After incubation for 4 h under humidified conditions, the concentration of test compound in both solutions of Acceptor and Donor plates were measured by UV plate reader (190-500 nm). Permeation coefficient Pe(10^−6 cm/sec) was calculated by the equation shown below.
[formula] ra=(VD/VA)Pe^(A→D)/Pe^(D→A)=rVPe^(A→D)/Pe^(D→A)
rV=(VD/VA) • VD=volume of donor well • VA=volume of acceptor well • t=permeation time • τ^SS=steady state time • R=retention • CD and CA=concentration in donor and acceptor well The results are shown in Table 4.
Background: The PAMPA barrier holds no transporters, so it reflects passive diffusion.

T1 sequence (Q12809 whole entry): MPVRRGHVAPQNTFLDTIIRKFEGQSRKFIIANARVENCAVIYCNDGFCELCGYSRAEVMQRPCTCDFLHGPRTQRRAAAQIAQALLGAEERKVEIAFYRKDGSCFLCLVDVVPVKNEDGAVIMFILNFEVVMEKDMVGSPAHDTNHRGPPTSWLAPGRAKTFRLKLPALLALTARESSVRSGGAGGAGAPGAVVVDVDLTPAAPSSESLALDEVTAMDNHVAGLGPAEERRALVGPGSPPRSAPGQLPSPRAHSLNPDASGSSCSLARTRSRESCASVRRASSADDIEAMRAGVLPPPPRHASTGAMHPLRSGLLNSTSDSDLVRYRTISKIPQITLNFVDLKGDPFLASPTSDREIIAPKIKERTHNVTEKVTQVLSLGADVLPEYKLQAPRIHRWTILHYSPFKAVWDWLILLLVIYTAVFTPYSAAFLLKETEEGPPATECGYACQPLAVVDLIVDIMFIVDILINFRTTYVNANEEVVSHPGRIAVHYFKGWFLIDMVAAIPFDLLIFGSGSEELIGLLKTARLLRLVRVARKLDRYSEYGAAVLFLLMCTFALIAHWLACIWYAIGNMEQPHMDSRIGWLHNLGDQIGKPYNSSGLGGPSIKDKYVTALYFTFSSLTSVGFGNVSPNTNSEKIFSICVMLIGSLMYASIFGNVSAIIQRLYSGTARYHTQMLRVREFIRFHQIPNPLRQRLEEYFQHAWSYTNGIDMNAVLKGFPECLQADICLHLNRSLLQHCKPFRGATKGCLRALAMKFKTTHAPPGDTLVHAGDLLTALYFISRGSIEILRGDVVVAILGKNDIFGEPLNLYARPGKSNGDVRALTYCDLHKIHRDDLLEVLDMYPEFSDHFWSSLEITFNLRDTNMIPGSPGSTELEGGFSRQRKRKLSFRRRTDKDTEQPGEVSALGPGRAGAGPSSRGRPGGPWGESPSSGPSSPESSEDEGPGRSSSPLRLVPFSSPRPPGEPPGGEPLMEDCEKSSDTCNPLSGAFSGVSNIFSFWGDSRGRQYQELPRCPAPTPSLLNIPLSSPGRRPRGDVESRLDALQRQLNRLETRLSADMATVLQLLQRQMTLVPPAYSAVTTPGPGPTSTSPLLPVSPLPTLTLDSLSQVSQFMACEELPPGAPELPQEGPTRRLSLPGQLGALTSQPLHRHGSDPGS

The pIC50 is −log10 of the IC50, conventionally taken in molar units. A higher pIC50 goes with a low IC50. `CCCCNc1nc(N)nc(C)c1Cc1ccc(N2CCN(C)CC2=O)cc1OC` [Example 1, 1-(4-{[2-Amino-4-(butylamino)-6-methylpyrimidin-5-yl]methyl}-3-methoxyphenyl)-4-methylpiperazin-2-one] had a pIC50 against hERG potassium channel of 5.54. Besides, in “PAMPA analysis”, the Papp at 4 h, 50 µM is 35.6 ×10⁻⁶ cm/s.

In the case of `CCCCCNc1nc(N)nc(C)c1Cc1ccc(N2CCN(C)CC2=O)cc1OC` [Example 2, 1-(4-{[2-Amino-4-methyl-6-(pentylamino)pyrimidin-5-yl]methyl}-3-methoxyphenyl)-4-methylpiperazin-2-one], the pIC50 at hERG potassium channel is 6.10. Besides, the Papp at 4 h, 50 µM in “PAMPA analysis” was determined as 44.2 ×10⁻⁶ cm/s.

`CCC[C@@H](CCO)Nc1nc(N)nc(C)c1Cc1ccc(N2CCN(C)CC2=O)cc1OC` [Example 3, (S)-1-(4-{[2-Amino-4-(1-hydroxyhexan-3-ylamino)-6-methylpyrimidin-5-yl]methyl}-3-methoxyphenyl)-4-methylpiperazin-2-one]: on hERG potassium channel, the negative logarithm of the IC50 (pIC50) was < 5.00. Moreover, the Papp at 4 h, 50 µM in the data set “PAMPA analysis” turned out to be 23.7 ×10⁻⁶ cm/s.

On to `CCC[C@@H](CO)Nc1nc(N)nc(C)c1Cc1ccc(N2CCN(C)CC2=O)cc1OC` [Example 4, (S)-1-(4-{[2-Amino-4-(1-hydroxypentan-2-ylamino)-6-methylpyrimidin-5-yl]methyl}-3-methoxyphenyl)-4-methylpiperazin-2-one], for which, on hERG potassium channel, the pIC50 was < 5.00. For the same molecule, the Papp at 4 h, 50 µM in the data set “PAMPA analysis” is 1.3 ×10⁻⁶ cm/s.

`CCC[C@@H](CCO)Nc1nc(N)nc(C)c1Cc1ccc(N2CCNCC2=O)cc1OC` [Example 5, (S)-1-(4-{[2-Amino-4-(1-hydroxyhexan-3-ylamino)-6-methylpyrimidin-5-yl]methyl}-3-methoxyphenyl)piperazin-2-one]: on hERG potassium channel, the negative-log IC50 (pIC50) is < 5.00. Further, the Papp at 4 h, 50 µM in “PAMPA analysis” is < 0.1 ×10⁻⁶ cm/s.
